Measurements published in patent publication US8114847B2, “Selective inhibitors of translesion DNA replication” (Case Western Reserve University, priority 2005, dated 2012).
“And” between values parts separate entries of the source, which are not always exact repeats. Equal values may be shown once. Read-outs that look alike come from different tables or passages of the source.

Key:
[1] = target: T1, gp43 exo+ (bacteriophage T4 DNA polymerase) (Enterobacteria phage T4, UniProt P04415); experiment: Idle turnover measurements with KINSIM simulation; type: biochemical
T1 construct: made in house
T1 sequence (P04415 1-898): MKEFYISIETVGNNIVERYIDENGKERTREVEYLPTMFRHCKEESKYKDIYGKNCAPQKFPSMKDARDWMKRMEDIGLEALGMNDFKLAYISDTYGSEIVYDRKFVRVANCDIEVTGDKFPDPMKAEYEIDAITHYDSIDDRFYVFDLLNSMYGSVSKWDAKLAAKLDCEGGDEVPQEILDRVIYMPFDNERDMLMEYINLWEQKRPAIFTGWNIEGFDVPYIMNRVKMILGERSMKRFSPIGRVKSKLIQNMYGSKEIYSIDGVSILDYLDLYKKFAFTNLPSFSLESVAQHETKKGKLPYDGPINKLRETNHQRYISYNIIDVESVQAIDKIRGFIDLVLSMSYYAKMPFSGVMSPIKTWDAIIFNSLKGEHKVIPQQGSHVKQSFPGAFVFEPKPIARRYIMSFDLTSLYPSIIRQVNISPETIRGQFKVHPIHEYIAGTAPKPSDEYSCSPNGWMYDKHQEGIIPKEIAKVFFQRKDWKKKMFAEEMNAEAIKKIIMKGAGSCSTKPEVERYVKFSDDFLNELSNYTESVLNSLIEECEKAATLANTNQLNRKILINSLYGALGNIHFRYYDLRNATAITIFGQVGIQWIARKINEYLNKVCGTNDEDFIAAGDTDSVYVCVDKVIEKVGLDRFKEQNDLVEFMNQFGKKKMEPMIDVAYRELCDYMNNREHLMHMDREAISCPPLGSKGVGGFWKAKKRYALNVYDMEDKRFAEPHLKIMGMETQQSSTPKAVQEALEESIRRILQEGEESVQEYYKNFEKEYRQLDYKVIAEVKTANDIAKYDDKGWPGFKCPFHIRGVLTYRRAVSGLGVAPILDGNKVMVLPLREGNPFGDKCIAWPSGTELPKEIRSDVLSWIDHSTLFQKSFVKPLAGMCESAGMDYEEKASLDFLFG
Method: DNA (13/20SP-mer or 13/20T-mer; 250 nM) was first preincubated with variable concentrations of 5-NITP (20-200 μM) or 5-PhITP (10-200 μM) in the presence of 30 μM dATP. Due to the nature of the DNA substrate (FIG. 1B), the insertion of dAMP opposite T at position 13 in the template maintains a usable primer template for the insertion of the nonnatural nucleotide opposite the abasic lesion (position 14). In all cases, the reaction was initiated through the addition of 1000 nM DNA gp43 exo^+. Five microliter aliquots of the reaction were quenched into tubes containing 5 μL of 200 mM EDTA at times ranging from 5 to 600 s. The quenched samples were processed as described above and product formation was analyzed using established protocols.
Simulations modeling the observed kinetic time courses for nucleotide insertion and excision were performed by mathematical analyses using KINSIM. A simplified mechanism depicted in FIG. 11 was employed that accounts for the kinetic parameters of interest. These minimally include KD values for each nucleotide, kpol values for their insertion, and kexo, which represents the hydrolytic rate constant. Both the starting reactant concentrations and rate constants were supplied for each step of the mechanism. In all cases, the rate constants were based upon either experimentally determined rate constants or published literature values. The simulated curves were then compared to those experimentally derived to judge how accurately each set of rate constants fit the experimental data. Adjustments to the rate constants were then made until the simulated time courses were nearly identical to the experimental time courses.
Idle turnover is a process in which the DNA polymerase incorporates a dNTP and then excises the inserted dNMP in the absence of the next required nucleotide triphosphate (FIG. 11). This activity provides a more accurate representation of in vivo conditions in which the polymerase should be bound and stalled at the sight of DNA damage. Idle turnover was quantified using a modified gel electrophoresis protocol that monitors the amount of extension (13-mer to 14-mer) and subsequent excision (14-mer to 13-mer) of the DNA as a function of time. All experiments were performed using single turnover reaction conditions to ensure that all DNA was bound with polymerase during the course of the reaction. Under these conditions, the rates in product formation reflect the kinetics of insertion and excision rather than enzyme dissociation from the mispair. In each experiment, the concentration of nonnatural nucleotide was varied from 20 to 200 μM. In addition, a low concentration of 30 μM dATP was used to allow for correct dNMP insertion at position 13-mer, which prevents complete degradation of DNA substrate.
Since single turnover reaction conditions were employed, kinetic steps reflecting enzyme dissociation and rebinding to product DNA are assumed to be negligible. Thus, the rate and amount of 14-mer produced are dependent upon four interrelated parameters. These include the kinetic dissociation constant (KD) for dXTP opposite the lesion (DNAn) (step 2), the rate constant for DNA extension (kpol) (step 3), the rate constant of exonuclease degradation (kexo) (step 5), and the kinetic dissociation constant (KD′) for dXTP opposite the next templating position (DNAn+1) (step 6). Although kpol is a complex function of kinetic rate constants, this value was simplified to combine the kinetic steps encompassing the conformational change prior to phosphoryl transfer, phosphoryl transfer, and the conformational change after phosphoryl transfer. Furthermore, translocation of the enzyme and pyrophosphate release (step 4) are assumed to be rapid.

[2] = target: T2, gp43exo− (bacteriophage T4 DNA polymerase) (Enterobacteria phage T4, UniProt P04415, D219A); conditions: cited from earlier work
[3] = target: T2, gp43exo− (bacteriophage T4 DNA polymerase); type: biochemical; conditions: 50 μM dXTP 30 s, then 1000 μM dGTP
[4] = target: T2, gp43exo− (bacteriophage T4 DNA polymerase); experiment: biochemical; type: biochemical; conditions: for inhibition of replication beyond an abasic site: 20 μM analogue, 500 μM dNTPs
[5] = target: T2, gp43exo− (bacteriophage T4 DNA polymerase); conditions: opposite an abasic site; previously determined values (Table 7 footnotes d, e, f not given); cited from earlier work
[6] = tested on: bacteriophage T4 polymerase; experiment: Calculated discrimination, toxicity index and therapeutic index; type: biochemical; conditions: for toxicity index (abasic DNA) / toxicity index (unmodified DNA): (kpol dNTP/kexo dXTP)(dXTP/dNTP)/(4D); for discrimination (unmodified DNA): ratio of catalytic efficiencies opposite templating nucleobase; for discrimination (abasic DNA): ratio of catalytic efficiencies, dATP versus dXTP
[7] = target: T2, gp43exo− (bacteriophage T4 DNA polymerase); type: biochemical; conditions: 500 μM analogue; 10 μM dNTPs; unmodified 13/20-mer
[8] = target: T2, gp43exo− (bacteriophage T4 DNA polymerase); conditions: previously demonstrated, cited from earlier work
[9] = target: T1, gp43 exo+ (bacteriophage T4 DNA polymerase); experiment: Pre-steady-state exonuclease assay (excision of dXMP from primer); type: biochemical; conditions: for kexo: single turnover, 1 μM gp43exo+
[10] = target: T2, gp43exo− (bacteriophage T4 DNA polymerase); experiment: biochemical; conditions: for kpol: pseudo-first-order conditions
[11] = target: T2, gp43exo− (bacteriophage T4 DNA polymerase); experiment: biochemical; type: biochemical
[12] = target: T1, gp43 exo+ (bacteriophage T4 DNA polymerase); conditions: paired opposite T; cited from earlier work
[13] = idle turnover opposite an abasic site, computer simulation fit of time courses

SMILES: O=[N+]([O-])c1ccc2c(ccn2[C@H]2C[C@H](O)[C@@H](COP(=O)(O)OP(=O)(O)OP(=O)(O)O)O2)c1 [5-NITP, 5-nitro-1-indolyl-2′-deoxyribose-5′-triphosphate]
- Kd ([1]; dXTP opposite the next templating position, computer simulation fit): 10000 µM
- Kd [1, 13]: 20 µM
- kexo [1, 13]: 10 S^−1 and 10 ± 2 S^−1
- kpol [1, 13]: 100 S^−1 and 100 ± 10 S^−1
- Kd [2]: 18 µM and ~10 µM
- catalytic efficiency for insertion opposite an abasic site relative to natural nucleotide (dAMP/dATP), greater [2]: 1000 fold
- incorporation opposite an abasic site favored compared to insertion opposite T (kpol) [2]: 140 fold
- kpol [2]: 126 ± 6 s⁻¹
- kpol/KD [2]: 7e+06 M⁻¹ s⁻¹
- extension beyond the mispair formed opposite an abasic site [3]: cannot elongate beyond the 14-mer product
- inhibition of replication beyond an abasic site [4]: level of 14-mer product remains invariant
- IC50 [4]: 10 µM and ~10 µM
- Kd [5]: 18 µM and 10 µM
- kpol [5]: 126 s⁻¹ and 126 ± 7 s⁻¹
- therapeutic index [6]: ~128
- toxicity index (abasic DNA) [6]: ~6
- toxicity index (unmodified DNA) [6]: 0.047
- discrimination (unmodified DNA) [6]: ~53
- discrimination (abasic DNA) [6]: 6.1×10^−4
- inhibition of normal DNA synthesis [7]: little effect
- Kd ([8]; independent of templating nucleobase): ~20 µM
- kpol ([8]; opposite T): ~0.9 s⁻¹
- kexo ([9]; template abasic site): 9.9 ± 0.8 s⁻¹
- kexo ([9]; template nucleoside thymine): 13.0 ± 1.4 s⁻¹

SMILES: O=P(O)(O)OP(=O)(O)OP(=O)(O)OC[C@H]1O[C@@H](n2ccc3cc(-c4ccccc4)ccc32)C[C@@H]1O [5-PhITP, 5-Phenyl-indole-2′-Deoxyribofuranoside 5′-Triphosphate]
- Kd ([10]; KD): ~25 µM
- kpol/KD ([10]; Template A): 4.0 × 10^3 M^−1S^−1
- kpol ([10]; Template A): 0.12 ± 0.01 s⁻¹
- kpol/KD ([10]; Template C): 6.8 × 10^3 M^−1S^−1
- kpol ([10]; Template C): 0.19 ± 0.02 s⁻¹
- kpol/KD ([10]; Template G): 21.7 × 10^3 M^−1S^−1
- kpol ([10]; Template G): 0.26 ± 0.02 s⁻¹
- kpol/KD ([10]; Template T): 6.4 × 10^3 M^−1S^−1
- kpol ([10]; Template T): 0.16 ± 0.01 s⁻¹
- stability of incorporation opposite the abasic site (idle turnover) ([1]; 100 μM nucleotide, compared with 100 μM 5-NITP): more stably incorporated opposite the abasic site
- Kd [1, 13]: 20 ± 5 µM
- kexo [1, 13]: 1.0 ± 0.1 S^−1
- kpol [1, 13]: 50 ± 10 S^−1
- amplitude of the burst phase [11]: 75 nM
- burst amplitude [11]: 240 ± 6 nM and 220 ± 3 nM and 220 nM
- kcat [11]: 2.2 s⁻¹
- kobs [11]: 37.4 s⁻¹ and 38.4 s⁻¹ and ~38 s⁻¹ and 38.4 ± 2.1 s⁻¹ and 37.4 ± 1.4 s⁻¹
- kobs calculated from Michaelis-Menten equation [11]: 14 s⁻¹
- kpol [11]: 53 ± 4 s⁻¹
- kpol/KD [11]: 3.8e+06 M⁻¹ s⁻¹
- observed rate constant of the burst phase (kobs) [11]: 9.1 ± 2.1 s⁻¹ and 9 s⁻¹
- Kd ([11]; KD): ~10 µM
- extension beyond the mispair formed opposite an abasic site [3]: identical results are obtained
- inhibition of replication beyond an abasic site [4]: Identical results are obtained
- IC50 [4]: 10 µM and ~10 µM
- toxicity index (abasic DNA) [6]: ~33
- toxicity index (unmodified DNA) [6]: 0.01-0.05
- discrimination (unmodified DNA) [6]: 460-2500
- discrimination (abasic DNA) [6]: 11.4×10^−5 and 11.4 × 10^−4
- inhibition of normal DNA synthesis [7]: Nearly identical results are obtained

SMILES: Nc1ncnc2c1ncn2[C@H]1C[C@H](O)[C@@H](COP(=O)(O)O)O1 [dAMP]
- kexo, published value [12]: 2 s⁻¹
- rate constant for excision opposite the abasic site faster than opposite T ([9]; abasic site versus T): ~40 fold
- kexo ([9]; template abasic site): 28.5±1.1 s^−1 and ≈ 28 s^−1 and 28.5+/−1.1 s^−1
- kexo ([9]; template nucleoside thymine): 0.8 ± 0.1 s⁻¹
